{"source": "patent US10213407B2", "about": "“Compounds and methods for inhibiting production of trimethylamine” (The Procter & Gamble Company, priority 2015, dated 2019)", "tested_on": "Proteus mirabilis 29906 (Pm) lysate", "assay": "Inhibition of formation of TMA from choline in Proteus mirabilis lysate (d9-choline to d9-TMA, LC-MS/MS)", "assay_type": "biochemical", "conditions": "conversion of choline to TMA; Pm lysate 1.5 mg/mL protein, 50 μM d9-choline chloride, 37° C., two hours; read-out: TMA Inhibition (IC50, mol/L)", "method": "EXAMPLE 2 Assay for identifying and characterizing compounds that inhibit the formation of TMA from choline.\nThis example provides an exemplary assay for identifying and characterizing compounds that inhibit the formation of TMA from choline.\nProteus mirabilis 29906 (Pm) strain was grown aerobically overnight in 500 ml of Nutrient Broth media (3 g/L beef extract, 5 g/L Peptone; Difco #234000) at 37° C. with 250 rpm shaking. The biomass was pelleted by centrifugation at 6000×g for 12 minutes at 4° C. The cell pellet was suspended in 240 mL of ice-cold 1× Phosphate Buffered Saline (Ca^2+ and Mg^2+ free). Ninety micrograms of Lysozyme (Sigma #L6876 Lot #SLBG8654V; Sigma-Aldrich Corp., St. Louis, Mo.) was added and incubated with 320 rpm shaking for 30 minutes at 4° C. Lysis was achieved via French press with a 4° C. prechilled 1″ diameter chamber at 1000 psi (high ratio; internal PSI equivalent ˜16000). The lysate was centrifuged at 6,000×g for 12 minutes at 4° C. to pellet extra debris. A protein concentration of the centrifuged lysate supernatant was determined by a BCA Protein Assay Kit (Pierce #23225; Thermo Fisher Scientific Co., Waltham, Mass.) and protein concentration adjusted to 3 mg/ml with 1× Dulbecco's phosphate buffered saline (DPBS). The centrifuged supernatant lysate was aliquoted into 20 mL volumes and stored frozen at −80° C.\nProteus mirabilis 29906 (Pm) lysate was diluted to 1.5 mg/mL protein with 1×DPBS. Choline chloride (CC) (1M stock) was added to reach a final concentration of 2.5 mM choline chloride. The mixture was mixed using a vortex mixer for approximately 15 seconds and incubated at 37° C. for 22 hours. After incubation, 150 μL of CC-treated Pm lysate was dispensed into a deep-well plate (polypropylene, 2 mL volume, Corning Axygen catalogue #P-DW-20-C). Candidate IC50 compounds from TABLE 1 and vehicle control (respective vehicle control of DMSO or water), or control compounds (IC50 control, 8-Quinolinol hemisulfate salt (Sigma Catalog #55100)) were added at a 1:100 dilution (e.g., 1.5 μL per well). The plates were agitated on a plate shaker for 1 minute. d9-choline chloride (1.5 μL of 5 mM) was added to all wells to reach a final d9-choline chloride concentration of 50 μM.\nThe plates were again agitated on a plate shaker for 1 minute and incubated at 37° C. for two hours. After incubation, 1.5 μL of formic acid was added to each well (final concentration=1% formic acid). The plates were agitated on a plate shaker for 1 minute and placed on ice. Cell lysate samples were spiked with stable isotope labeled internal standard (22.5 μL of 6 μg/mL of 13C3-trimethylamine (13C3-TMA) was added to each sample), then d9-trimethylamine (d9-TMA), trimethylamine (TMA) and 13C3-TMA were isolated from the lysate after protein precipitation as described below. Acetonitrile acidified with 0.1% formic acid, 600 μL, was added to each sample which was then centrifuged (2,100 g for 20 minutes) to pellet the protein and other precipitates. The supernatant was removed and analyzed as described below. The TMA, d9-TMA and 13C3-TMA in the isolated supernatant samples were subjected to gradient High Performance Liquid Chromatography (HPLC) analysis on a Waters Atlantis HILIC Silica column, from Waters Corp., Milford, Mass., (2.1×50 mm, 3 μm particles) with an Atlantis Silica HILIC Sentry guard column, from Waters Corp., Milford, Mass., (100 Å, 3 μm, 2.1 mm×10 mm), 10 mM ammonium formate in water with 0.1% formic acid as mobile phase A and 0.1% formic acid in acetonitrile as mobile phase B. Detection and quantitation was achieved by tandem mass spectrometry operating under multiple reaction monitoring (MRM) MS/MS conditions (m/z 60.1→44.1 for TMA, m/z 69.1→49.1 for d9-TMA, m/z 63.0→46.1 for 13C3-TMA). TMA and d9-TMA calibration standards (STD), prepared in 80/20/0.1% acetonitrile/Water/Formic Acid, were used to construct a regression curve by plotting the response (peak area TMA/peak area 13C3-TMA) versus concentration for each standard. […]", "data": [{"smiles": "CC[N+](C)(CC)CCCN=C=S", "note": "[Compound 2, 3-Isothiocyanato-N,N-diethyl-N-methylpropanaminium iodide]", "values": [{"measurement": "IC50", "value": 10.6, "unit": "µM"}]}, {"smiles": "CCOC(=O)C(=O)C[N+](C)(C)CCN=C=S", "note": "[Compound 5, N-(Ethoxypropyl-2,3-dione)-2-isothiocyanato-N,N-dimethylethan-1-aminium bromide]", "values": [{"measurement": "IC50", "value": 769, "unit": "µM"}]}, {"smiles": "CCOC(=O)C(=O)C[N+](C)(C)CCCN=C=S", "note": "[Compound 6]", "values": [{"measurement": "IC50", "value": 14.4, "unit": "µM"}]}, {"smiles": "CC[N+](CC)(CCBr)CCCN=C=S", "note": "[Compound 7, N-(2-Bromoethyl)-3-isothiocyanato-N,N-diethylpropan-1-aminium triflate]", "values": [{"measurement": "IC50", "value": 18.2, "unit": "µM"}]}, {"smiles": "CC[N+](CC)(CC#N)CCCN=C=S", "note": "[Compound 9, N-Cyanomethyl-3-isothiocyanato-N,N-diethylpropan-1-aminium bromide]", "values": [{"measurement": "IC50", "value": 60.5, "unit": "µM"}]}]}
